Measurements: ChEMBL document CHEMBL4507329, “Data for DCP probe BTZO-1” (2021)

Experiments:
[1] = molecular target: Mitogen-activated protein kinase kinase kinase 2 (Homo sapiens) (UniProt Q9Y2U5); conditions: Compound concentration 1000.0 nM
[2] = molecular target: Serine/threonine-protein kinase STK11 (Homo sapiens) (UniProt Q15831); conditions: Compound concentration 1000.0 nM
[3] = molecular target: cAMP-dependent protein kinase catalytic subunit beta (Homo sapiens) (UniProt P22694); conditions: Compound concentration 1000.0 nM
[4] = molecular target: Serine/threonine-protein kinase PknB (Mycobacterium tuberculosis) (UniProt P9WI81); conditions: Compound concentration 1000.0 nM
[5] = molecular target: Receptor-interacting serine/threonine-protein kinase 2 (Homo sapiens) (UniProt O43353); conditions: Compound concentration 1000.0 nM
[6] = molecular target: Tyrosine-protein kinase SYK (Homo sapiens) (UniProt P43405); conditions: Compound concentration 1000.0 nM
[7] = molecular target: Serine/threonine-protein kinase 10 (Homo sapiens) (UniProt O94804); conditions: Compound concentration 1000.0 nM
Serine/threonine-protein kinase 10 (Homo sapiens), sequence (O94804 whole entry, looked up): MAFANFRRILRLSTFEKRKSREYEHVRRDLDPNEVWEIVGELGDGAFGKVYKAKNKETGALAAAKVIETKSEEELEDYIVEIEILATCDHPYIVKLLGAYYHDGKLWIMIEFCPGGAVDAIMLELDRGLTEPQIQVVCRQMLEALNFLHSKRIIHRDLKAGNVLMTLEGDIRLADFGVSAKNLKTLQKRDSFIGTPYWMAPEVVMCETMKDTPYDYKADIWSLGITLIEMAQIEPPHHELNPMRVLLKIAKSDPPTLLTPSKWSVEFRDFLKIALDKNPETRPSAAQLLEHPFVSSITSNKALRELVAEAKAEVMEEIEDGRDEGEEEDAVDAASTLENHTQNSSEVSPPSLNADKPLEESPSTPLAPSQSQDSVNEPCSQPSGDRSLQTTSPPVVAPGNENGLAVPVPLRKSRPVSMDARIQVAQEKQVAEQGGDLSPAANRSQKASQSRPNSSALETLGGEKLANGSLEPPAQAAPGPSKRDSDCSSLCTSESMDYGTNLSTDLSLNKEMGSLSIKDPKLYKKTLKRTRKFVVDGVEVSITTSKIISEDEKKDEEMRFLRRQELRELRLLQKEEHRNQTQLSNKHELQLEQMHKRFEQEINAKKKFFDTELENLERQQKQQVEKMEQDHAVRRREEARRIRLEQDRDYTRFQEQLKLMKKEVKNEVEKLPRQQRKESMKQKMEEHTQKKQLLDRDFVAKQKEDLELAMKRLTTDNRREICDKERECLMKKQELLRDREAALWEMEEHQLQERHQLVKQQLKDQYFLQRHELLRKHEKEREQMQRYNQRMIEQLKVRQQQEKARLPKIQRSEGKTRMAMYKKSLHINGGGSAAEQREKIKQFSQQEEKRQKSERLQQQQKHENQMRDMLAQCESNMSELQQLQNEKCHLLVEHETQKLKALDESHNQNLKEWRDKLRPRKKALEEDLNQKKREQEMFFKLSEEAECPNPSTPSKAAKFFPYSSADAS

[8] = molecular target: Ribosomal protein S6 kinase beta-1 (Homo sapiens) (UniProt P23443); conditions: Compound concentration 1000.0 nM
Ribosomal protein S6 kinase beta-1 (Homo sapiens), sequence (P23443 whole entry, looked up): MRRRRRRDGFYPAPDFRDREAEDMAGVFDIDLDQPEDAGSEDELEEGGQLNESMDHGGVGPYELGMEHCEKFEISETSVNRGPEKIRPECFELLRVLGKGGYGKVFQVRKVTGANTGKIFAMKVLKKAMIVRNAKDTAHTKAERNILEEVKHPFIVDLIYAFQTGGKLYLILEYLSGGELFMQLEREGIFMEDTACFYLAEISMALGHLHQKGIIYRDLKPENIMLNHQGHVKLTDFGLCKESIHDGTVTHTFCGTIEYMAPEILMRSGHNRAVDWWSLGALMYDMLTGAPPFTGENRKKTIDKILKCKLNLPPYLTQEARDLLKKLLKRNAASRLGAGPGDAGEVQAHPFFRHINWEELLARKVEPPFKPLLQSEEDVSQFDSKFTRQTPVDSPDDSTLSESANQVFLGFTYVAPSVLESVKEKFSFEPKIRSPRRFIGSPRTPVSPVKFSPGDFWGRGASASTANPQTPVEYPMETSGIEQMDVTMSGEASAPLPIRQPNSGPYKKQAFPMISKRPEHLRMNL

[9] = molecular target: Mitogen-activated protein kinase 13 (Homo sapiens) (UniProt O15264); conditions: Compound concentration 1000.0 nM
[10] = molecular target: MAP kinase-activated protein kinase 5 (Homo sapiens) (UniProt Q8IW41); conditions: Compound concentration 1000.0 nM
[11] = molecular target: Macrophage colony-stimulating factor 1 receptor (Homo sapiens) (UniProt P07333); conditions: Compound concentration 1000.0 nM
[12] = molecular target: Phosphatidylinositol 4-phosphate 3-kinase C2 domain-containing subunit beta (Homo sapiens) (UniProt O00750); conditions: Compound concentration 1000.0 nM
[13] = molecular target: Receptor-interacting serine/threonine-protein kinase 1 (Homo sapiens) (UniProt Q13546); conditions: Compound concentration 1000.0 nM
[14] = test system: Proto-oncogene tyrosine-protein kinase receptor Ret (Homo sapiens), P07949 [M918T]; conditions: Compound concentration 1000.0 nM
[15] = molecular target: Tyrosine-protein kinase ABL1 (Homo sapiens) (UniProt P00519); conditions: Compound concentration 1000.0 nM
[16] = molecular target: Tyrosine-protein kinase Fyn (Homo sapiens) (UniProt P06241); conditions: Compound concentration 1000.0 nM
Tyrosine-protein kinase Fyn (Homo sapiens), sequence (P06241 2-537 limits assumed): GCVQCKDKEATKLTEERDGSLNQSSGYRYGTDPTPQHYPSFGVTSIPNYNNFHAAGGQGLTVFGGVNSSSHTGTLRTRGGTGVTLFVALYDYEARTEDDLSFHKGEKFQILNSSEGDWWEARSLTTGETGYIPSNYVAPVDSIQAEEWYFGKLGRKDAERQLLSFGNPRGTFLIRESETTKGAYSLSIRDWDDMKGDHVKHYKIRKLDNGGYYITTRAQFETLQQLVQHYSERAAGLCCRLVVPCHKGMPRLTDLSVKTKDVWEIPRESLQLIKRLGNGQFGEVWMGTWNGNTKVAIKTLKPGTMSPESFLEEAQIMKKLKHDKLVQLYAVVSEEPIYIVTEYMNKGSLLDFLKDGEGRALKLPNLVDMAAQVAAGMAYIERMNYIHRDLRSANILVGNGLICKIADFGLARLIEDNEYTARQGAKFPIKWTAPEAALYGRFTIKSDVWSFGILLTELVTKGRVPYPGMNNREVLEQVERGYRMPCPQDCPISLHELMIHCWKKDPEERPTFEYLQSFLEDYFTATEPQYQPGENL

[17] = molecular target: Eukaryotic translation initiation factor 2-alpha kinase 1 (Homo sapiens) (UniProt Q9BQI3); conditions: Compound concentration 1000.0 nM
[18] = molecular target: Serine/threonine-protein kinase SBK1 (Homo sapiens) (UniProt Q52WX2); conditions: Compound concentration 1000.0 nM
[19] = molecular target: Hepatocyte growth factor receptor (Homo sapiens) (UniProt P08581); conditions: Compound concentration 1000.0 nM
[20] = test system: Proto-oncogene tyrosine-protein kinase receptor Ret (Homo sapiens), P07949 [V804M]; conditions: Compound concentration 1000.0 nM
[21] = molecular target: Interleukin-1 receptor-associated kinase 1 (Homo sapiens) (UniProt P51617); conditions: Compound concentration 1000.0 nM
[22] = molecular target: Tyrosine-protein kinase CSK (Homo sapiens) (UniProt P41240); conditions: Compound concentration 1000.0 nM
[23] = molecular target: Serine/threonine-protein kinase WNK4 (Homo sapiens) (UniProt Q96J92); conditions: Compound concentration 1000.0 nM
[24] = test system: Phosphatidylinositol 4,5-bisphosphate 3-kinase catalytic subunit alpha isoform (Homo sapiens), P42336 [I800L]; conditions: Compound concentration 1000.0 nM
[25] = molecular target: Maternal embryonic leucine zipper kinase (Homo sapiens) (UniProt Q14680); conditions: Compound concentration 1000.0 nM
Maternal embryonic leucine zipper kinase (Homo sapiens), sequence (Q14680 whole entry, looked up): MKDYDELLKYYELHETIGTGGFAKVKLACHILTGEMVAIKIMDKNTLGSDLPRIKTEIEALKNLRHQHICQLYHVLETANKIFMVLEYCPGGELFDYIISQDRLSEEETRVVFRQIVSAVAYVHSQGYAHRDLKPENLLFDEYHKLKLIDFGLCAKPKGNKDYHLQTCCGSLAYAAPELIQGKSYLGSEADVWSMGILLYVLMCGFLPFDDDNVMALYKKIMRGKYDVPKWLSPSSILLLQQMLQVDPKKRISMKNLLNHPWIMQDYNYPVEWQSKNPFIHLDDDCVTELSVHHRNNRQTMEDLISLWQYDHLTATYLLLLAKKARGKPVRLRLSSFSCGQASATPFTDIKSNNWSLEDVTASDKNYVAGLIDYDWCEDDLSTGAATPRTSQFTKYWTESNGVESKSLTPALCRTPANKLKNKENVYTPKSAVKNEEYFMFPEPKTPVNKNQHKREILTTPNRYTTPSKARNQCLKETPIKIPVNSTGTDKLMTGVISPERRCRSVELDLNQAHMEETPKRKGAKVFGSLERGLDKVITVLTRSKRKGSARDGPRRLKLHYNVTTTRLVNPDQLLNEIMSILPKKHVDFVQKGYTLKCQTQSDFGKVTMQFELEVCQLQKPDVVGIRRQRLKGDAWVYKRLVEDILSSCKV

[26] = molecular target: Dual serine/threonine and tyrosine protein kinase (Homo sapiens) (UniProt Q6XUX3); conditions: Compound concentration 1000.0 nM
[27] = molecular target: Serine/threonine-protein kinase Sgk3 (Homo sapiens) (UniProt Q96BR1); conditions: Compound concentration 1000.0 nM
[28] = molecular target: Serine/threonine-protein kinase haspin (Homo sapiens) (UniProt Q8TF76); conditions: Compound concentration 1000.0 nM
[29] = molecular target: Proto-oncogene tyrosine-protein kinase Src (Homo sapiens) (UniProt P12931); conditions: Compound concentration 1000.0 nM
Proto-oncogene tyrosine-protein kinase Src (Homo sapiens), sequence (P12931 2-536 limits assumed): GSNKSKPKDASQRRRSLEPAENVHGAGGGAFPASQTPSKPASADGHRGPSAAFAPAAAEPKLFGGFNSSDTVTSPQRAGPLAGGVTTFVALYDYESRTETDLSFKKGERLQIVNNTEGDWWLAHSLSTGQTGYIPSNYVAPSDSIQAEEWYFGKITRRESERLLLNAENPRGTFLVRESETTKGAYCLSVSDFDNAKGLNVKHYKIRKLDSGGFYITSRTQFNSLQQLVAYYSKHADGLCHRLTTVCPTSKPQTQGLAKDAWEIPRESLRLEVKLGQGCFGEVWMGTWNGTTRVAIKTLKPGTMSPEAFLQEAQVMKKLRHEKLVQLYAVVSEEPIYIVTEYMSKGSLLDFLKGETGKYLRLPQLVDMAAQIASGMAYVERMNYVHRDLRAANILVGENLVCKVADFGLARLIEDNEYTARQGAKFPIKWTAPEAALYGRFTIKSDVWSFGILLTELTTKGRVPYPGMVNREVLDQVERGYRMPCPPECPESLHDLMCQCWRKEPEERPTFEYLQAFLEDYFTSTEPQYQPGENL

[30] = molecular target: Serine/threonine-protein kinase PAK 5 (Homo sapiens) (UniProt Q9P286); conditions: Compound concentration 1000.0 nM
Serine/threonine-protein kinase PAK 5 (Homo sapiens), sequence (Q9P286 whole entry, looked up): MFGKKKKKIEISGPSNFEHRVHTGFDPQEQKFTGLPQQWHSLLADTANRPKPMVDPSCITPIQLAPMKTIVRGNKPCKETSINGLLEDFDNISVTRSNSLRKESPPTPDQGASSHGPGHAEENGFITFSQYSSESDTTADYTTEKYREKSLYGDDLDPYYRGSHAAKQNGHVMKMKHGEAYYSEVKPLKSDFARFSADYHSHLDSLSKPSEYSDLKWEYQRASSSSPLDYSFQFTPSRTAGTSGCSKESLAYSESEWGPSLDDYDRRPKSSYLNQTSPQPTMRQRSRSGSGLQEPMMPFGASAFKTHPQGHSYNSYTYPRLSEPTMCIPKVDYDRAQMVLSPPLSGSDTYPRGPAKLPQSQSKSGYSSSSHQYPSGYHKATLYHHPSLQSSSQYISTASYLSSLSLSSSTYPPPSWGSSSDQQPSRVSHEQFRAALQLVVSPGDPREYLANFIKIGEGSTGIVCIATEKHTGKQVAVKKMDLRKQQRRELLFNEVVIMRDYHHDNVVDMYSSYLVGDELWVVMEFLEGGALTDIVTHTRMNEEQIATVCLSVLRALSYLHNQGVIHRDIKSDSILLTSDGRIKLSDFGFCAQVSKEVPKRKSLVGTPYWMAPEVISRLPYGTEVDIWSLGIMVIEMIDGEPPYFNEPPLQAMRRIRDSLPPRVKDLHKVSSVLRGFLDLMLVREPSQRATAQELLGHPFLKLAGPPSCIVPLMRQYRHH

[31] = molecular target: Cyclin-dependent kinase 17 (Homo sapiens) (UniProt Q00537); conditions: Compound concentration 1000.0 nM
[32] = molecular target: Tyrosine-protein kinase receptor UFO (Homo sapiens) (UniProt P30530); conditions: Compound concentration 1000.0 nM
[33] = molecular target: Ribosomal protein S6 kinase alpha-6 (Homo sapiens) (UniProt Q9UK32); conditions: Compound concentration 1000.0 nM
[34] = molecular target: Serine/threonine-protein kinase TNNI3K (Homo sapiens) (UniProt Q59H18); conditions: Compound concentration 1000.0 nM
[35] = molecular target: Leukocyte tyrosine kinase receptor (Homo sapiens) (UniProt P29376); conditions: Compound concentration 1000.0 nM
[36] = molecular target: Tyrosine-protein kinase Fes/Fps (Homo sapiens) (UniProt P07332); conditions: Compound concentration 1000.0 nM
[37] = molecular target: Cyclin-dependent kinase 9 (Homo sapiens) (UniProt P50750); conditions: Compound concentration 1000.0 nM
Cyclin-dependent kinase 9 (Homo sapiens), sequence (P50750 whole entry): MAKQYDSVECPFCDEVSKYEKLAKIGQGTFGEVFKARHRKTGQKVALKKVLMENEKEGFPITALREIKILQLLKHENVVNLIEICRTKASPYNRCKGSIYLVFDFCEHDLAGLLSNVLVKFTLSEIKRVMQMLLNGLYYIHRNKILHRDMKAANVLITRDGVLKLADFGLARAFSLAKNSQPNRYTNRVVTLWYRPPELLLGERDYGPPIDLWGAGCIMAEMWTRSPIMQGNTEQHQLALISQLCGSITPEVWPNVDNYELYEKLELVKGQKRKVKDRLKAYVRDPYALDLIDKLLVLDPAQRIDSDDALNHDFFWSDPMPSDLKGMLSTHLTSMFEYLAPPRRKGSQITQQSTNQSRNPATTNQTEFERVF

[38] = molecular target: Serine/threonine-protein kinase TAO1 (Homo sapiens) (UniProt Q7L7X3); conditions: Compound concentration 1000.0 nM
[39] = molecular target: Tyrosine-protein kinase receptor TYRO3 (Homo sapiens) (UniProt Q06418); conditions: Compound concentration 1000.0 nM
[40] = test system: Receptor-type tyrosine-protein kinase FLT3 (Homo sapiens), P36888 [D835H]; conditions: Compound concentration 1000.0 nM
[41] = molecular target: Serine/threonine-protein kinase 3 (Homo sapiens) (UniProt Q13188); conditions: Compound concentration 1000.0 nM
[42] = molecular target: Cyclin-dependent kinase 2 (Homo sapiens) (UniProt P24941); conditions: Compound concentration 1000.0 nM
[43] = molecular target: Mu-type opioid receptor (Homo sapiens) (UniProt P35372); conditions: Compound concentration 10.0 uM
Mu-type opioid receptor (Homo sapiens), sequence (P35372 whole entry): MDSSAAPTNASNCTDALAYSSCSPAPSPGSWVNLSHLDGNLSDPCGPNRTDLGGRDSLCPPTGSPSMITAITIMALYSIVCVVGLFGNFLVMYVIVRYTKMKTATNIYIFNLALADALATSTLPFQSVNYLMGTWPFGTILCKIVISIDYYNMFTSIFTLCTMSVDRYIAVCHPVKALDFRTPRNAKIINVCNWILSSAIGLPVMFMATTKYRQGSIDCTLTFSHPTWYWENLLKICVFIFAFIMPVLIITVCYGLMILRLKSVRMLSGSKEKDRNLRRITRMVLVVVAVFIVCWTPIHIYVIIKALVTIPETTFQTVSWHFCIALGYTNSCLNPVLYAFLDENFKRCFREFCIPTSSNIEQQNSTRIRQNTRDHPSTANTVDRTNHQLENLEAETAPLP

[44] = molecular target: Interferon-induced, double-stranded RNA-activated protein kinase (Homo sapiens) (UniProt P19525); conditions: Compound concentration 1000.0 nM

O=C1NC(c2ccccn2)Sc2ccccc21 (stereo not drawn) [BTZO-4]
inactive: residual activity [1] 82% | residual activity [2] 87% | residual activity [3] 97% | residual activity [4] 77% | residual activity [5] 100% | residual activity [6] 75% | residual activity [7] 100% | residual activity [8] 75% | residual activity [9] 100% | residual activity [10] 73% | residual activity [11] 85% | residual activity [12] 86% | residual activity [13] 81% | residual activity [14] 64% | residual activity [15] 72% | residual activity [16] 100% | residual activity [17] 79% | residual activity [18] 100% | residual activity [19] 68% | residual activity [20] 86% | residual activity [21] 96% | residual activity [22] 100% | residual activity [23] 100% | residual activity [24] 80% | residual activity [25] 81% | residual activity [26] 92% | residual activity [27] 100% | residual activity [28] 100% | residual activity [29] 85% | residual activity [30] 94% | residual activity [31] 100% | residual activity [32] 92% | residual activity [33] 96% | residual activity [34] 87% | residual activity [35] 89% | residual activity [36] 94% | residual activity [37] 100% | residual activity [38] 96% | residual activity [39] 76% | residual activity [40] 65% | residual activity [41] 100% | residual activity [42] 81% | inhibition [43] 6.47% | residual activity [44] 91%

O=c1nc(-c2ccccn2)sc2ccccc12 [BTZO-1]
inactive: residual activity [1] 92% | residual activity [2] 79% | residual activity [3] 92% | residual activity [4] 88% | residual activity [5] 82% | residual activity [6] 97% | residual activity [7] 99% | residual activity [8] 100% | residual activity [9] 99% | residual activity [10] 92% | residual activity [11] 85% | residual activity [12] 83% | residual activity [13] 83% | residual activity [14] 81% | residual activity [15] 89% | residual activity [16] 100% | residual activity [17] 97% | residual activity [18] 100% | residual activity [19] 74% | residual activity [20] 100% | residual activity [21] 100% | residual activity [22] 100% | residual activity [23] 100% | residual activity [24] 84% | residual activity [25] 82% | residual activity [26] 88% | residual activity [27] 100% | residual activity [28] 100% | residual activity [29] 92% | residual activity [30] 87% | residual activity [31] 100% | residual activity [32] 100% | residual activity [33] 95% | residual activity [34] 87% | residual activity [35] 99% | residual activity [36] 100% | residual activity [37] 95% | residual activity [38] 92% | residual activity [39] 80% | residual activity [40] 74% | residual activity [41] 94% | residual activity [42] 96% | inhibition [43] 3.52% | residual activity [44] 100%
